Assay results from patent US20060234909A1, “Compositions and methods for increasing drug efficiency” (priority 2003, published 2006).
Primed or numbered codes have the meaning given here. * marks the point of attachment. 10Ca‑PXL = paclitaxel conjugated at C10 via a carbamate; 3Am‑VBL = vinblastine (VBL) conjugate; PEG(11) = PEG(11) linker; PEG(13) = PEG13 linker; Piv = CC(C)(C)C(=O)*

How the values were obtained:
tubulin = experiment: Fluorescence-based tubulin polymerization assay (MPA; enhancement for paclitaxel, inhibition for vinblastine); assay type: biochemical
Description: Drug-linker constructs may further be screened using functional assays predictive of biological activity. […] Tubulin assembly or inhibition thereof may be monitored by fluorescence using the CytoDYNAMIX Screen™ 10 kit available from Cytoskeleton (1830 S. Acoma St., Denver, Colo.). […] Emission is monitored at 405 nm with excitation at 360 nm. […] Tubulin assembly or inhibition may also be monitored by light scattering which is approximated by the apparent absorption at 350 nm. For paclitaxel drug conjugates BSA is employed to prevent aggregation and glycerol, which is a tubulin polymerization enhancer, is omitted from the kit to increase the signal to noise ratio.
The assay kit (#BK011) was purchased from Cytoskeleton (Denver, Colo.). The assays were carried out according to the manufacturer's instructions, except that 1 mg/ml BSA (Sigma #A3059) was included in all assays. […] Parent drugs and conjugates were tested at 0.75, 1.5, 3 and 10 micromolar final concentration and results represent a comparison of conjugate and parent drug curves obtained from the linear range of the dose responses.
(±SD) represent the average of all tests carried out for all lots of a given compound.

MCF-7 breast carcinoma = experiment: Cytotoxicity assay (monolayer), MCF-7; assay type: cell-based; conditions: MCF7, ML (monolayer); read-out: MCF7 (EC50 Ave) ML;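 note: cells treated 72 h with 6-8 compound doses versus DMSO vehicle controls, EC50 fitted by 4-parameter dose-response curves, averaged across all tests and lots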
[1] = tested on: HT-29 colorectal carcinoma; experiment: Cytotoxicity assay (monolayer), HT-29; assay type: cell-based; conditions: HT29, ML (monolayer); read-out: HT29 (EC50 Ave) ML;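 note: monolayer cultures tested in triplicate, compound exposure for three days against DMSO vehicle controls, EC50 fitted from dose-response curves and averaged across all tests and lots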
HUVEC = experiment: Cytotoxicity assay (monolayer), HUVEC; assay type: cell-based; conditions: ML (monolayer), read-out: HUVEC (EC50 Ave) ML
[2] = tested on: Normal human foreskin fibroblasts (HFF); conditions: read-out: HFF (EC50 Ave) ML; HFF, ML (monolayer)
MCF-7 cells = conditions: read-out: MCF7 (EC50 Ave) SA; MCF7, SA (soft agar)
HT-29 cells = conditions: read-out: HT29 (EC50 Ave) SA; HT29, SA (soft agar)
Human Src = target: T1, Human Src (Homo sapiens, UniProt P12931); experiment: Src kinase assay (PKLight ATP utilization, substrate phosphorylation as % of parent peptide); assay type: biochemical
T1 construct: purchased Upstate (Charlottesville, Va.) 14-326
Procedure: Another test may involve monitoring the consumption of ATP. For example, ATP concentrations at time 0 or after 4 hour incubation may be monitored by luciferase reaction (PKLight kit obtained from Cambrex Corporation, One Meadowlands Plaza, East Rutherford, N.J. 07073), which generate a luminescence readout in the presence of ATP. Assays are initiated by mixing a kinase and a peptide in the presence of 40 μM ATP. After 4 hour of incubation at 30° C., PKLight reagent is added and mixed well, and luminescence readout measured. The rate of peptide phosphorylation is then directly related to the rate of decrease in the observed luminescence. Based on the first test, linkers of appropriate lengths and peptides with an effective amount of kinase activity which may be expected to be retained in the drug conjugate may be found.
Human Src (#14-326) and Akt (#14-276) kinases were purchased from Upstate (Charlottesville, Va.). Kinase reactions were carried out in 50 μl kinase reaction cocktail (25 mM Tris-HCl, pH 7.5, 5 μM β-glycerophosphate, 2 mM DTT, 0.1 mM Na3VO4, 10 mM MgCl2, 1 mg/ml BSA, […], 0.5 to 1.0 units enzyme). Substrates (peptide or drug-peptide conjugate in […]) were added (25, 50 and 100 μM) and the reaction was incubated for 2-5 hours at 30° C. PKLight reagent (23 μl) (Cambrex BioSciences, Rockland, Me.) was mixed with […] of the above kinase reaction and ATP utilization relative to no substrate and no ATP controls was determined by measuring luminescence with a SpectraMax Gemini EM plate reader (Molecular Devices, Sunnyvale, Calif.). Peptide substrates for Src and Akt have been described. For examples, see Lou et al. Letters in Peptide Science, 2, 289-296 (1995); Lou et al. Bioorganic & Medicinal Chemistry, 4, 677-682 (1996); Alessi et al. FEBS Letters, 399, 333-338 (1996). Substrate phosphorylation potential was determined from the linear portion of the substrate concentration dose response as a percentage of the activity observed with the parent peptide used for drug conjugation.

Compound | Ave. MPA Act. (tubulin) | EC50 (MCF-7 breast carcinoma) | EC50 [1] | EC50 (HUVEC) | EC50 [2] | EC50 (MCF-7 cells) | EC50 (HT-29 cells) | Average src kinase activity (Human Src)
CC[C@]1(O)C[C@@H]2CN(CCc3c([nH]c4ccccc34)[C@@](C(=O)OC)(c3cc4c(cc3OC)N(C)[C@H]3[C@@](O)(C(=O)NCCCCCCCCCCCCN)[C@H](O)[C@]5(CC)C=CCN6CC[C@]43[C@@H]65)C2)C1 [VBL-3Am-ALK(12)-NH2] | B (B=50-80) | < 20 nM | < 20 nM | < 20 nM | < 20 nM | < 20 nM | < 20 nM | –
Pv-YIYGSFR-PEG(11)-3Am-VBL (Piv-YIYGSFR-{PEG(11)-3Am‑VBL}) | C (C>80) | > 100 nM | > 100 nM | > 100 nM | > 100 nM | > 100 nM | > 100 nM | B (B=20-40)
CC(=O)O[C@H]1C(=O)[C@]2(C)[C@@H](OC(=O)NCCCCCCN)C[C@H]3OC[C@@]3(OC(C)=O)[C@H]2[C@H](OC(=O)c2ccccc2)[C@]2(O)C[C@H](OC(=O)[C@H](O)[C@@H](NC(=O)c3ccccc3)c3ccccc3)C(C)=C1C2(C)C [PXL-7Ca-ALK(6)-NH2] | A (A<50) | 100 to 1000 nM | < 20 nM | < 20 nM | < 20 nM | < 20 nM | < 20 nM | –
Pv-EYIYGSFR-PEG(13)-10Ca-PXL (Piv-EYIYGSFR-{PEG(13)-10Ca‑PXL}) | B (B=50-80) | > 100 nM | > 100 nM | > 100 nM | > 100 nM | > 100 nM | > 100 nM | B (B=20-40)
Ac-EYIyGSFK-PEG(13)-10Ca-PXL (EYIYGSFK; not fully specified) | C (C>80) | > 100 nM | > 100 nM | > 100 nM | > 100 nM | > 100 nM | > 100 nM | Zero
CC(=O)O[C@@]12CO[C@@H]1C[C@H](O)[C@@]1(C)C(=O)[C@H](OC(=O)CCCCCN)C3=C(C)[C@@H](OC(=O)[C@H](O)[C@@H](NC(=O)c4ccccc4)c4ccccc4)C[C@@](O)([C@@H](OC(=O)c4ccccc4)[C@H]21)C3(C)C [PXL-10Es-ALK(5)-NH2] | B (B=50-80) | < 20 nM | < 20 nM | < 20 nM | < 20 nM | < 20 nM | < 20 nM | –
BOC-YIYGSFR-PEG(11)-3Am-VBL (N-BOC; PEG(11) linker; vinblastine conjugate) | C (C>80) | > 100 nM | > 100 nM | > 100 nM | > 100 nM | > 100 nM | > 100 nM | B (B=20-40)
CC[C@]1(O)C[C@@H]2CN(CCc3c([nH]c4ccccc34)[C@@](C(=O)OC)(c3cc4c(cc3OC)N(C)[C@H]3[C@@](O)(C(=O)NN)[C@H](O)[C@]5(CC)C=CCN6CC[C@]43[C@@H]65)C2)C1 [Desacetylvinblastine monohydrazine] | C (C>80) | < 20 nM | < 20 nM | < 20 nM | < 20 nM | < 20 nM | < 20 nM | –
